IC50 and Ki data for one compound are collected here from ChEMBL document CHEMBL5226326, “Discovery of 1-Benzoyl 4-Phenoxypiperidines as Small-Molecule Inhibitors of the β-Catenin/B-Cell Lymphoma 9 Protein-Protein Interaction” (J Med Chem, 2021).

In data set [1] the target is T1, beta-catenin-B-cell lymphoma 9 protein complex (Homo sapiens, UniProt P35222).
T1 sequence (P35222 whole entry): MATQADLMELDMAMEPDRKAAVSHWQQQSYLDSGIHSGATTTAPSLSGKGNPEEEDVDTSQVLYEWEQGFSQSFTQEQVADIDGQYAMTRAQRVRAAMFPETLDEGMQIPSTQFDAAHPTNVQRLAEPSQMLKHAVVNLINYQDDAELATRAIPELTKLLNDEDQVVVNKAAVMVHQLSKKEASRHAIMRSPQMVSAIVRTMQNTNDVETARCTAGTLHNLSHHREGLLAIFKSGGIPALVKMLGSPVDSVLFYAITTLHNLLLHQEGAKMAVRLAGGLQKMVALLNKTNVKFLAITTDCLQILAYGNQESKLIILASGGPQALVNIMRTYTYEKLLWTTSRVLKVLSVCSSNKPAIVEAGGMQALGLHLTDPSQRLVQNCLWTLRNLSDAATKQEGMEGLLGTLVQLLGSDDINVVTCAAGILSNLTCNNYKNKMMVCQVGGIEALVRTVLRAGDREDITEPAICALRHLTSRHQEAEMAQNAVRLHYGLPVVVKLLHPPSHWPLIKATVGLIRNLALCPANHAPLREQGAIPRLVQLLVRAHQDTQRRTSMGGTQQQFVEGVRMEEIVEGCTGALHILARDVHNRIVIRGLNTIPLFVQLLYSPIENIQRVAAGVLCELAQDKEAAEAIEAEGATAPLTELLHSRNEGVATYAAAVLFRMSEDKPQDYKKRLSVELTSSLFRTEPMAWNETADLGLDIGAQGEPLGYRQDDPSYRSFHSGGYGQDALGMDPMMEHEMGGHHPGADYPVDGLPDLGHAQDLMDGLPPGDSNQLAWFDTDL
T1 sequence (O00512 whole entry): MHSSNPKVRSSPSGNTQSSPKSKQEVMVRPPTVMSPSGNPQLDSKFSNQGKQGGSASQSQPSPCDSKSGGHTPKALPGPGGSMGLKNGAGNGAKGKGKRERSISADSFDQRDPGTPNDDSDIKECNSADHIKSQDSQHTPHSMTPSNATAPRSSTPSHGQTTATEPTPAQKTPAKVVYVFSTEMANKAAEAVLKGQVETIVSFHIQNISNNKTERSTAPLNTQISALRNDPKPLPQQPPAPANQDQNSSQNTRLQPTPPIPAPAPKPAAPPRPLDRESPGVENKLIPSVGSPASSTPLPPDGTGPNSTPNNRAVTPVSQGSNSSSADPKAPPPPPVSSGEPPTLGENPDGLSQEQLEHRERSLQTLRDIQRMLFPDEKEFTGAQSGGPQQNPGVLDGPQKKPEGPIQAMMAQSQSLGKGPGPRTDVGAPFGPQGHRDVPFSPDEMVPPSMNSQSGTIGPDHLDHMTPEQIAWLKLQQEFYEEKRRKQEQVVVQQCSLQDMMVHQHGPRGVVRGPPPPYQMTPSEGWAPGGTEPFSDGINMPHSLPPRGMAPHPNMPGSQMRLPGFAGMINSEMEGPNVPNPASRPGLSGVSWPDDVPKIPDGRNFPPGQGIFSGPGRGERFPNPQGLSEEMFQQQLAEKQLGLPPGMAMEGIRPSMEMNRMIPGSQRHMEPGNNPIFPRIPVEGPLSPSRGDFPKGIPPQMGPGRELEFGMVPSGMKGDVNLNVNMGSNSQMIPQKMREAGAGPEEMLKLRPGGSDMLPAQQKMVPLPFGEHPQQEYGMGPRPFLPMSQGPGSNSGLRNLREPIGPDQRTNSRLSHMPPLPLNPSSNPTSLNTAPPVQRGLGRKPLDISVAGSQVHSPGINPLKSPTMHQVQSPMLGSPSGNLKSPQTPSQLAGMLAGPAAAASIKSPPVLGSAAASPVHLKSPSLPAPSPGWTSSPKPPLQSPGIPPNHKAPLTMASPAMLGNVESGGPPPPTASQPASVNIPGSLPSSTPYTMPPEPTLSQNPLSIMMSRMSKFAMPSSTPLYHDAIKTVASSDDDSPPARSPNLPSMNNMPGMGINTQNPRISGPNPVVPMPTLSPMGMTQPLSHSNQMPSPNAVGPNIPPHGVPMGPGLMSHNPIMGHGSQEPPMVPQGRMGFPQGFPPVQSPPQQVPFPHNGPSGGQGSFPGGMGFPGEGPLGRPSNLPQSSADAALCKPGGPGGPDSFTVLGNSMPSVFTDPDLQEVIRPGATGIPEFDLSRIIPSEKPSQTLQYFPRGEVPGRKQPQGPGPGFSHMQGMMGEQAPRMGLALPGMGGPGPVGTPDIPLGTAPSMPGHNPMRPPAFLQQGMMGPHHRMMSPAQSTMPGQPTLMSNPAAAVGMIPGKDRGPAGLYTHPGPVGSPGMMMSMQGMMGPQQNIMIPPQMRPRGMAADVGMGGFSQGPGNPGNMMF
The data set is described as follows: Inhibition of full length beta-catenin (1 to 781 residues) (unknown origin) expressed in Escherichia coli BL21 (DE3)/N-terminal biotinylated human BCL9 HD2 (350 to 375 residues) protein-protein interaction incubated for 1 hr by Alphascreen assay. (In general: Bead proximity is the source of the signal in Alpha formats.)

Data set [2] relates to MDA-MB-231. Put plainly: Antiproliferative activity against beta-catenin signalling overexpressing human MDA-MB-231 cells assessed as reduction in cell growth incubated for 72 hrs by MTS assay. Particulars: MDA-MB-231, 72 h. In kind it is functional, cell-based. (In general: Tetrazolium dyes change colour on reduction, which living cells bring about.)
Data set [3] addresses T1, beta-catenin-B-cell lymphoma 9 protein complex. The data set is described as follows: Inhibition of full length beta-catenin (1 to 781 residues) (unknown origin) expressed in Escherichia coli BL21 (DE3)/N-terminal biotinylated human BCL9 HD2 (350 to 375 residues) protein-protein interaction assessed as inhibition constant incubated for 1 hr by Alphascreen assay.
A short description of data set [4]: Cytotoxicity against human MCF-10A cells assessed as reduction in cell growth incubated for 72 hrs by MTS assay. It counts as toxicity, cell-based.
In data set [5] the test system is SW480. The data set is described as follows: Antiproliferative activity against beta-catenin signalling overexpressing human SW480 cells assessed as reduction in cell growth incubated for 72 hrs by MTS assay. In kind it is functional, cell-based. Particulars: SW480, 72 h.

Regarding `CC(C)(C)C1CCC(c2cc(C(=O)N3CCC(Oc4cc(N5CCNCC5)ccc4C#N)CC3)ccc2O[C@H]2CCNC2)CC1.Cl.Cl` (mixture of isomers; cis), the results for the IC50 in data set [1], in data set [2] and in data set [5] were 1.2 µM, 4.1 µM and 6.2 µM, respectively. The Ki in data set [3] came out at 0.96 µM. For the same compound, in data set [4], the half-maximal inhibitory concentration (IC50) at 72 h is 18 µM.

A word on the IC50: it is the point on the concentration scale where inhibition reaches its midpoint. Broadly, the Ki is a measure of affinity in units of concentration, obtained from inhibition or displacement.
